# Data taken from patent publication US20260285853A1, “COMPOUNDS AND METHODS FOR MODULATING SPLICING” (REMIX THERAPEUTICS INC., priority 2023, published 2026).
# Assays:
# [1] = test system: HTT mRNA; test: Splicing RT-qPCR assay, canonical (CJ) and alternative (AJ) junction mRNA, K562 cells; type: cell-based; conditions: Homo sapiens, K562.3 cells, 24 hours; for AC50: read-out: HTT AJ (AC50, increase in AJ mRNA); for IC50: read-out: HTT CJ (IC50, decrease in CJ mRNA)
# Procedure, shortened: (§1)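 K562 cells were treated for 24 h at 37 °C with an 11-point 3-fold dilution series (top 10 uM final, DMSO ≤0.25%), then lysed for one-step RT-qPCR of canonical and alternative junctions. ΔΔCt was taken against GAPDH or GUSB and DMSO, converted to RQ by 2^(−ΔΔCt), then to % response.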
# [2] = test system: MYB mRNA; test: as above; type: cell-based; conditions: Homo sapiens, K562.3 cells, 24 hours; for AC50: read-out: MYB AJ (AC50, increase in AJ mRNA); for IC50: read-out: MYB CJ (IC50, decrease in CJ mRNA)
# Procedure, shortened: as §1
Structure (SMILES),AC50 [1] [nM],IC50 [1] [nM],AC50 [2] [nM],IC50 [2] [nM]
"CN[C@H]1C[C@@H](C)N(c2ccc(C(=O)Nc3cc(F)c4nc(C)cn4c3)c3nn(C)cc23)C1 (single isomer, unassigned) [Compound 128]",1000 to 10000,100 to 1000,100 to 1000,100 to 1000
"CN[C@H]1CCN(c2ccc(C(=O)Nc3cc(F)c4nc(C)cn4c3)c3nn(C)cc23)[C@H]1C (single isomer, unassigned) [Compound 152]",> 10000,> 10000,1000 to 10000,1000 to 10000
"CN[C@@H]1CCN(c2ccc(C(=O)Nc3cc(F)c4nc(C)cn4c3)c3nn(C)cc23)[C@@H]1C (single isomer, unassigned) [Compound 153]",1000 to 10000,100 to 1000,< 100,< 100
"CN[C@H]1CCN(c2ccc(C(=O)Nc3cc(F)c4nc(C)cn4c3)c3nn(C)cc23)[C@@H]1C (single isomer, unassigned) [Compound 154]",> 10000,> 10000,100 to 1000,100 to 1000
"COCCN[C@@H]1CCN(c2ccc(C(=O)Nc3cc(F)c4nc(C)cn4c3)c3nn(C)cc23)C1 [Compound 113, N-(8-fluoro-2-methyl-imidazo[1,2-a]pyridin-6-yl)-4-[(3R)-3-(2-methoxyethylamino)pyrrolidin-1-yl]-2-methyl-indazole-7-carboxamide]",> 10000,> 10000,100 to 1000,100 to 1000
"COCC1(N[C@H]2CCN(c3ccc(C(=O)Nc4cc(F)c5nc(C)cn5c4)c4nn(C)cc34)C2)CC1 [Compound 118, (S)—N-(8-fluoro-2-methylimidazo[1,2-a]pyridin-6-yl)-4-(3-((1-(methoxymethyl)cyclopropyl)amino)pyrrolidin-1-yl)-2-methyl-2H-indazole-7-carboxamide]",> 10000,1000 to 10000,1000 to 10000,1000 to 10000
"COCC1(N[C@@H]2CCN(c3ccc(C(=O)Nc4cc(F)c5nc(C)cn5c4)c4nn(C)cc34)C2)CC1 [Compound 119, (R)—N-(8-fluoro-2-methylimidazo[1,2-a]pyridin-6-yl)-4-(3-((1-(methoxymethyl)cyclopropyl)amino)-pyrrolidin-1-yl)-2-methyl-2H-indazole-7-carboxamide]",> 10000,1000 to 10000,100 to 1000,100 to 1000
"CN[C@@H]1C[C@@H](C)N(c2ccc(C(=O)Nc3cc(F)c4nc(C)cn4c3)c3nn(C)cc23)C1 [Compound 129, N-(8-fluoro-2-methyl-imidazo[1,2-a]pyridin-6-yl)-2-methyl-4-[(2R,4R)-2-methyl-4-(methylamino)pyrrol-idin-1-yl]indazole-7-carboxamide]",1000 to 10000,1000 to 10000,100 to 1000,100 to 1000
"CCN[C@@H]1CCN(c2cc(O)c(C(=O)Nc3cc(F)c4nc(C)cn4c3)c3nn(C)cc23)C1 [Compound 144, 4-[3-(ethylamino)pyrrolidin-1-yl]-N-(8-fluoro-2-methyl-imidazo[1,2-a]pyridin-6-yl)-6-hydroxy-2-methyl-indazole-7-carboxamide]",> 10000,> 10000,< 100,< 100
"CN[C@H]1CCN(c2c(O)cc(C(=O)Nc3cc(F)c4nc(C)cn4c3)c3nn(C)cc23)C1 [Compound 149, N-(8-fluoro-2-methyl-imidazo[1,2-a]pyridin-6-yl)-5-hydroxy-2-methyl-4-[(3S)-3-(methylamino)pyrrolidin-1-yl]-indazole-7-carboxamide]",> 10000,1000 to 10000,1000 to 10000,1000 to 10000
"CN[C@@H]1CCN(c2ccc(C(=O)Nc3cc(F)c4nc(C)cn4c3)c3nn(C)cc23)[C@H]1C [Compound 155, N-(8-fluoro-2-methylimidazo-[1,2-a]pyridin-6-yl)-2-methyl-4-[(2S,3R)-2-methyl-3-(methylamino)-pyrrolidin-1-yl]indazole-7-carboxamide]",> 10000,> 10000,> 10000,1000 to 10000
